Here are results for 1 molecule from patent US12496361B2, “Imaging compounds for detecting or imaging senescent cells” (University of Dundee, priority 2023, dated 2025).

Molecules are shown by their SMILES.

The subject of test [1] is Li-Fraumeni-p21^WAF1/Cip1 Tet-ON cells. The test can be described thus: Detection by flow cytometry of senescent cells in cell culture. It is filed as cell-based. Particulars: with or without Doxycycline; anti-Ki67-Pacific blue and anti-p16^INK4A-APC; 3 independent experiments. The method, then:
(§1) 1-Ethyl-2-((E)-2-((E)-3-((E)-2-(1-ethyl-3,3-dimethylindolin-2-ylidene)ethylidene)-2-((4-(4-((2-methyl-6-((E)-(4-((E)-phenyldiazenyl)naphthalen-1-yl)diazenyl)-2,3-dihydro-1H-perimidin-2-yl)methoxy)-4-oxobutanamido)butyl)amino)cyclohex-1-en-1-yl)vinyl)-3,3-dimethyl-3H-indol-1-ium iodide (15, Scheme 2, Example 2) was used to detect senescent cultured cells by flow cytometry.
(§2) Li-Fraumeni-p21^WAF1/Cip1 or HBEC-CDC6 Tet-ON cellular systems were grown in culture without or with Doxycyclin to induce senescence. Subsequently cells were treated and assessed as follows: • 1. Harvest cells from culture. • 2. Centrifuge at 1200 rpm for 5 min at RT. • 3. Wash ×1 in 5 ml PBS at RT. • 4. Resuspend cell pellet in 4% PFA and incubate them for 15 min in RT (fixation) • 5. Centrifuge at 1200 rpm for 5 min at RT. • 6. Resuspend cell pellet in 0.3% Triton-X/PBS and incubate it for 15 min at RT. • 7. Wash ×1 in 2 ml PBS at RT • 8. Centrifuge at 1200 rpm for 5 min at RT. • 9. Incubate samples with 100 μl of GLF16 for 8 min under gently shaking in dark condition • 10. Add 2 ml of wash buffer [PBS/DMSO (2.5%)/TWEEN-20 (2.5%)] and centrifuge at 1200 rpm for 5 min at RT (×2) • 11. Incubate with primary-conjugated antibody/ies for 20 min RT • 12. Centrifuge at 1200 rpm for 5 min at RT (×2) • 13. Apply flow cytometry buffer (PBS/5% FBS)
(In general: Flow cytometry measures light scatter and fluorescence of single cells or particles in a stream.)

Test [2] has as its system HBEC CDC6 Tet-ON cells. Described as above. The note with it: with or without Doxycycline; anti-Ki67-Pacific blue only (HBEC cells do not express p16^INK4A). It is filed as cell-based. The protocol: as §1, §2
Test [3] concerns Li-Fraumeni-p21^WAF1/Cip1 Tet-ON cells. The test can be described thus: Detection of senescent cells in cell cultures by fluorescent microscopy. It is filed as cell-based. The method, then: (§3) 1-Ethyl-2-((E)-2-((E)-3-((E)-2-(1-ethyl-3,3-dimethylindolin-2-ylidene)ethylidene)-2-((4-(4-((2-methyl-6-((E)-(4-((E)-phenyldiazenyl)naphthalen-1-yl)diazenyl)-2,3-dihydro-1H-perimidin-2-yl)methoxy)-4-oxobutanamido)butyl)amino)cyclohex-1-en-1-yl)vinyl)-3,3-dimethyl-3H-indol-1-ium iodide (15, Scheme 2, Example 2) was used to detect senescent cells in cell spreads using fluorescent microscopy (FIG. 1).
(§4) Li-Fraumeni-p21^WAF1/Cip1 or HBEC-CDC6 Tet-ON cellular systems were grown on cover slips and collected before and after the mentioned respective treatments for induction of senescence. Cover slips were treated as follows: • a) Cell spreads, immobilized preferably on a microscopy coverslip, are fixed in 4% paraformaldehyde (PFA) for 10 minutes at 4° C.; • b) Wash with PBS; • c) Cell membrane permeabilization: Immerse coverslips in solution of 0.3% Triton-X 100 diluted in PBS for 15 minutes; • d) Wash with PBS; • e) Apply compound of formula I on cells for 10 minutes in dark conditions; • f) Wash 3 times with fresh wash buffer [PBS/DMSO (2.5%)/TWEEN-20 (2.5%)]; • g) Incubate cells with 0.3% Triton-X 100 diluted in PBS for 3 minutes; • h) Wash with PBS; • i) Apply DAPI 1/5000 for 5 minutes in dark condition; • j) Rinse samples with dH2O for 30 seconds; • k) Cover section using a mounting medium for immunofluorescence.

Test [4] relates to HBEC CDC6 Tet-ON cells. The test is described as above. Type of test: cell-based. The protocol:
as §3, §4

Test [5] relates to senescent cells in human tissue sections (irradiated laryngeal, chemotherapy-treated breast, aged liver). The test can be described thus: Detection of senescent cells in tissue sections by fluorescent microscopy, human clinical settings. The note with it: chemotherapy-treated breast tissues, liver specimens from aged individuals versus respective controls, FFPE sections. An excerpt: (§5) 1-Ethyl-2-((E)-2-((E)-3-((E)-2-(1-ethyl-3,3-dimethylindolin-2-ylidene)ethylidene)-2-((4-(4-((2-methyl-6-((E)-(4-((E)-phenyldiazenyl)naphthalen-1-yl)diazenyl)-2,3-dihydro-1H-perimidin-2-yl)methoxy)-4-oxobutanamido)butyl)amino)cyclohex-1-en-1-yl)vinyl)-3,3-dimethyl-3H-indol-1-ium iodide (15, Scheme 2, Example 2) was used to detect senescent cells in tissue sections by fluorescent microscopy.
(§6) Tissue sections were obtained from paraffin embedded, formalin fixed of: (A) irradiated human laryngeal tumors, (B) chemotherapy-treated breast tissues, (C) liver specimens from aged versus young individuals, (D) K-ras^V12 induced lung adenomas, (E) Palbociclib-treated human melanoma xenografts, and (F) Bleomycin-induced lung fibrosis mouse model, with established presence of senescent cells. Subsequently, they were immobilized on glass microscopy slides by standard procedures and processed as follows: • i. Section deparaffinization through a 30 minutes incubation at 60° C., followed by washing in xylene for 15 minutes at room temperature. • ii. Gradual rehydration of biopsy material, usually fixed tissues, in solutions of descending concentration of ethanol (100%, 96%, 80%, 70%, 50% v/v) for 5 minutes each step and finally in Phosphate-buffered saline (PBS) buffering solution; • iii. Antigen retrieval by heating in citrate acid solution 10 mM, pH=6. […]

Test [6] deals with senescent cells in tissue sections of murine models (K-ras^V12-induced lung adenomas, palbociclib-treated human melanoma xenografts, bleomycin-induced lung …). The test can be described thus: Detection of senescent cells in tissue sections by fluorescent microscopy, murine models. The note with it: bleomycin-treated lungs.
Excerpt: as §5, §6

As for `CCN1/C(=C/C=C2\CCCC(/C=C/C3=[N+](CC)c4ccccc4C3(C)C)=C2NCCCCNC(=O)CCC(=O)OCC2(C)Nc3cccc4c(/N=N/c5ccc(/N=N/c6ccccc6)c6ccccc56)ccc(c34)N2)C(C)(C)c2ccccc21` (stereo not shown) [GLF16, 1-ethyl-2-((E)-2-((E)-3-((E)-2-(1-ethyl-3,3-dimethylindolin-2-ylidene)ethylidene)-2-((4-(4-((2-methyl-6-((E)-(4-((E)-phenyldiazenyl)naphthalen-1-yl)diazenyl)-2,3-dihydro-1H-perimidin-2-yl)methoxy)-4-oxobutanamido)butyl)amino)cyclohex-1-en-1-yl)vinyl)-3,3-dimethyl-3H-indol-1-ium iodide], the “co-detection of GLF16 with senescence markers in gated GLF16 (+) and (-) cells” value is “co-detection of GLF16 and senescence markers (p16^INK4A and absence of Ki67) in the senescent population (induced cells)” in test [1]; “co-detection of GLF16 and senescence markers (p16^INK4A and absence of Ki67) in the senescent population (induced cells)” in the test on HBEC CDC6 Tet-ON cells [2]. Moreover, in test [3] ((+) Doxycycline, FIG. 2 panels B, C), the “specificity: co-staining with p16^INK4A and Ki67” value is “concordant staining presence of the senescence associated factors”. The “co-staining with the proliferative marker Ki67” value in test [3] (FIG. 2C) was “inverse relationship between GLF16 and Ki67 positivity”. Besides, the GLF16 staining signal result in test [3] (cells treated or not with Doxycycline for 6-8 days, fixed, permeabilized, confocal microscope) is “intense cytoplasmic signal (corresponding to lipofuscin aggregates) abundant in senescent cells and entirely absent in untreated ones”. For the same molecule, the “specificity: co-staining with p21^WAF1/Cip and Ki67” value with HBEC CDC6 Tet-ON cells [4] ((+) Doxycycline, FIG. 2 panels F, G) was “concordant staining presence of the senescence associated factors”. For the same molecule, the “staining of senescent cells” value in the test on HBEC CDC6 Tet-ON cells [4] (FIG. 2 panel E, (-) Doxycycline as negative control) was “successful application”. Further, the “GLF16-positive cells in tissue” value in test [5] is “abundant in GLF16-positive cells while in respective controls these positive cells were totally absent”. In test [6] (FIG. 3 G-I, tissue per panel not stated except H), the “concurrent staining with Ki67, p21^WAF1/Cip1 and p16^INK4A” value was “coincided with p16^INKA4 or p21^WAF1/Cip1 but not with Ki67”. Further, the “GLF16 (lipofuscin) positive macrophages” value in test [6] (FIG. 3H) is reported as “positive macrophages in bleomycin-treated lungs are also evident”.
